{"source": "patent US8785147B2", "about": "“L-threonine analysis method and L-threonine dehydrogenase” (Toyama Prefecture, priority 2010, dated 2014)", "key": {"[1]": {"system": "CsTDH: TDH from Clostridium sticklandii", "settings": "substrate specificity; L-threonine = 100; cited from earlier work"}, "[2]": {"system": "GdTDH: TDH from chicken liver (Gallus domesticus)", "settings": "substrate specificity; L-threonine = 100; cited from earlier work"}, "[3]": {"system": "TDH derived from Cupriavidus necator NBRC 102504 (SEQ ID NO: 1) (CnTDH)", "assay": "Substrate specificity of TDH, standard assay", "type": "biochemical", "settings": "for Activity of the present enzyme on the substrate (in words): substrate 10 mM", "procedure": "L-threonine oxidation activity was determined by measuring coenzyme NAD^+ reduction at 30° C. and 340 nm. The reaction composition consisted of a total volume of 1 mL and contained L-threonine (final concentration 10 mM), NAD^+ (final concentration 2.5 mM), and glycine-KCl—KOH buffer (100 mM, pH 10.0). The measurement of activity began with the addition of the enzyme. One unit (U) of enzymatic activity was defined as the amount of enzyme producing 1 μmol of NADH per minute under standard conditions.\nTDH was examined using substrates in the form of various L-amino acids, amino alcohols, and alcohols. […]"}, "[4]": {"biological_target": "EcTDH: TDH from Escherichia coli K-12 (Escherichia coli, UniProt P07913)", "sequence (P07913 whole entry)": "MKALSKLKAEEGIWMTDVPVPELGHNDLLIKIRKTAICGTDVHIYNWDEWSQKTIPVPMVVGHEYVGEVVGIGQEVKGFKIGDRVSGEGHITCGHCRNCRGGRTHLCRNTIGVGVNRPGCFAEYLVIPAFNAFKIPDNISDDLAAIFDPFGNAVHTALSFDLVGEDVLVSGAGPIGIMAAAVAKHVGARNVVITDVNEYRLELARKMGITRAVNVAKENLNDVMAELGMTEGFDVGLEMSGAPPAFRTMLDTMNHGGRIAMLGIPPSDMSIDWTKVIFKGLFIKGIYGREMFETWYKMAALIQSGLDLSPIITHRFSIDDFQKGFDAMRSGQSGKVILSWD", "settings": "substrate specificity; L-threonine = 100; cited from earlier work"}, "[5]": {"system": "CyTDH: TDH from Cytophaga sp. KUC-1", "settings": "substrate specificity; L-threonine = 100; cited from earlier work"}, "[6]": {"biological_target": "PfTDH: TDH from Pyrococcus furiosus (Pyrococcus furiosus, UniProt Q8U259)", "sequence (Q8U259 whole entry)": "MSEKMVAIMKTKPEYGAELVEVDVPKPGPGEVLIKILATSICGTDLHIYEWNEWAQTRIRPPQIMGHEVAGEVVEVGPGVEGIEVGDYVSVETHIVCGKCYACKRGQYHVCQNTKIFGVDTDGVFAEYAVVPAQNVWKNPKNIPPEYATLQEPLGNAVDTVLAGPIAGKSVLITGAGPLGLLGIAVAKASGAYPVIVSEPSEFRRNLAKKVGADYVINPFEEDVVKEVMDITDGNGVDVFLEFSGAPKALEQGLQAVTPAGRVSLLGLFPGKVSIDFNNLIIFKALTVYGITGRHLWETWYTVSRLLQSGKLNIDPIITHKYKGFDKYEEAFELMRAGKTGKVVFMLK", "settings": "substrate specificity; L-threonine = 100; cited from earlier work"}, "[7]": {"biological_target": "TkTDH (Thermococcus kodakarensis, UniProt Q5JI69)", "sequence (Q5JI69 whole entry)": "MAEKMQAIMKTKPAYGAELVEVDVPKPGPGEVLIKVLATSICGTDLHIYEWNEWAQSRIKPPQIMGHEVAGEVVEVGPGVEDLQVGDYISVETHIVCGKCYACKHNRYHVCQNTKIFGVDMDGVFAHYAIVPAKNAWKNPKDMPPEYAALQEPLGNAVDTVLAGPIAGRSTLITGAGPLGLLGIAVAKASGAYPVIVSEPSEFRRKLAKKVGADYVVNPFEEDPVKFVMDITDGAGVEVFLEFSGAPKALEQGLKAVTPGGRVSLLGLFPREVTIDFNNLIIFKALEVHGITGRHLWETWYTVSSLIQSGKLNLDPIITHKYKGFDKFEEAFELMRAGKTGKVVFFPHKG", "settings": "substrate specificity; L-threonine = 100; cited from earlier work"}, "[8]": {"system": "StTDH: TDH from Streptomyces sp. 139", "settings": "substrate specificity; L-threonine = 100; cited from earlier work"}, "[9]": {"system": "AgTDH: TDH from Arthrobacter globiformis", "settings": "substrate specificity; L-threonine = 100; cited from earlier work"}, "[10]": {"settings": "substrate concentration 10 mM, standard assay conditions, L-threonine = 100"}}, "data": [{"smiles": "C[C@H](O)[C@H](N)C(=O)O", "note": "(racemic) [DL-allothreonine]", "values": [{"measurement": "Relative activity (%) CsTDH", "setting": "[1]", "value": 0, "unit": "%"}, {"measurement": "Relative activity (%) GdTDH", "setting": "[2]", "value": 0, "unit": "%"}, {"measurement": "Relative activity (%) CnTDH", "setting": "[3]; [10]", "value": 0, "unit": "%"}, {"measurement": "Relative activity (%) EcTDH", "setting": "[4]", "value": 95.0, "unit": "%"}]}, {"smiles": "NC(C(=O)O)C(O)c1ccccc1", "note": "(racemic) [DL-threo-3-phenylserine]", "values": [{"measurement": "Relative activity (%) CsTDH", "setting": "[1]", "value": 0, "unit": "%"}, {"measurement": "Relative activity (%) CyTDH", "setting": "[5]", "value": 0, "unit": "%"}, {"measurement": "Relative activity (%) CnTDH", "setting": "[3]; [10]", "value": 0, "unit": "%"}, {"measurement": "Relative activity (%) EcTDH", "setting": "[4]", "value": 3, "unit": "%"}]}, {"smiles": "CCC(O)C(N)C(=O)O", "note": "(racemic) [DL-α-amino-β-hydroxyvaleric acid]", "values": [{"measurement": "Relative activity (%) CsTDH", "setting": "[1]", "value": 20, "unit": "%"}, {"measurement": "Relative activity (%) CyTDH", "setting": "[5]", "value": 31, "unit": "%"}, {"measurement": "Relative activity (%) GdTDH", "setting": "[2]", "value": 0, "unit": "%"}, {"measurement": "Relative activity (%) EcTDH", "setting": "[4]", "value": 71, "unit": "%"}]}, {"smiles": "C[C@H](O)[C@@H](N)C(=O)O", "note": "[D-threonine]", "values": [{"measurement": "Relative activity (%) CsTDH", "setting": "[1]", "value": 0, "unit": "%"}, {"measurement": "Relative activity (%) CyTDH", "setting": "[5]", "value": 0, "unit": "%"}, {"measurement": "Relative activity (%) GdTDH", "setting": "[2]", "value": 0, "unit": "%"}, {"measurement": "Activity of the present enzyme on the substrate (in words)", "setting": "[3]; standard assay conditions", "value": "no activity was observed"}, {"measurement": "Relative activity (%) CnTDH", "setting": "[3]; [10]", "value": 0, "unit": "%"}, {"measurement": "Relative activity (%) EcTDH", "setting": "[4]", "value": 63.7, "unit": "%"}, {"measurement": "Relative activity (%) PfTDH", "setting": "[6]", "value": 5, "unit": "%"}]}, {"smiles": "N[C@@H](CO)C(=O)O", "note": "[L-serine]", "values": [{"measurement": "Relative activity (%) CsTDH", "setting": "[1]", "value": 0, "unit": "%"}, {"measurement": "Relative activity (%) CyTDH", "setting": "[5]", "value": 0, "unit": "%"}, {"measurement": "Relative activity (%) GdTDH", "setting": "[2]", "value": 0, "unit": "%"}, {"measurement": "Relative activity (%) CnTDH", "setting": "[3]; substrate 100 mM", "value": 0, "unit": "%"}, {"measurement": "Relative activity (%) CnTDH", "setting": "[3]; [10]", "value": 0, "unit": "%"}, {"measurement": "Relative activity (%) EcTDH", "setting": "[4]", "value": 4.0, "unit": "%"}, {"measurement": "Relative activity (%) TkTDH", "setting": "[7]", "value": 13, "unit": "%"}, {"measurement": "Relative activity (%) PfTDH", "setting": "[6]", "value": 15, "unit": "%"}]}, {"smiles": "COC(=O)[C@@H](N)[C@@H](C)O", "note": "[L-threonine methyl ester]", "values": [{"measurement": "Relative activity (%) CsTDH", "setting": "[1]", "value": 0, "unit": "%"}, {"measurement": "Relative activity (%) CnTDH", "setting": "[3]; [10]", "value": 0, "unit": "%"}, {"measurement": "Relative activity (%) EcTDH", "setting": "[4]", "value": 27, "unit": "%"}]}, {"smiles": "C[C@@H](O)[C@H](N)C(=O)O", "note": "[L-threonine]", "values": [{"measurement": "Relative activity (%) CsTDH", "setting": "[1]", "value": 100, "unit": "%"}, {"measurement": "Relative activity (%) CyTDH", "setting": "[5]", "value": 100, "unit": "%"}, {"measurement": "Relative activity (%) GdTDH", "setting": "[2]", "value": 100, "unit": "%"}, {"measurement": "Activity of the present enzyme on the substrate (in words)", "setting": "[3]; standard assay conditions", "value": "exhibited the activity for only L-threonine"}, {"measurement": "Relative activity (%) CnTDH", "setting": "[3]; [10]", "value": 100, "unit": "%"}, {"measurement": "Relative activity (%) EcTDH", "setting": "[4]", "value": 100.0, "unit": "%"}, {"measurement": "Relative activity (%) TkTDH", "setting": "[7]", "value": 100, "unit": "%"}, {"measurement": "Relative activity (%) PfTDH", "setting": "[6]", "value": 100, "unit": "%"}, {"measurement": "Relative activity (%) StTDH", "setting": "[8]", "value": 100, "unit": "%"}, {"measurement": "Relative activity (%) AgTDH", "setting": "[9]", "value": 100, "unit": "%"}]}]}
